The target of the assay is Spermine oxidase (Homo sapiens, UniProt Q9NWM0). Put plainly: Enzyme Inhibition Assay. The settings on record: pH 8.3; 25 °C. The method, then: SMO activity was assayed at pH 8.3 (0.1 M Tris-HCl buffer) and 25°C using Spm as the substrate in the presence and absence of CHX.

The values below come from BindingDB's records for doi:10.3109/14756366.2011.650691 (University Roma Tre, 2013).

Spermine oxidase, sequence (Q9NWM0 whole entry): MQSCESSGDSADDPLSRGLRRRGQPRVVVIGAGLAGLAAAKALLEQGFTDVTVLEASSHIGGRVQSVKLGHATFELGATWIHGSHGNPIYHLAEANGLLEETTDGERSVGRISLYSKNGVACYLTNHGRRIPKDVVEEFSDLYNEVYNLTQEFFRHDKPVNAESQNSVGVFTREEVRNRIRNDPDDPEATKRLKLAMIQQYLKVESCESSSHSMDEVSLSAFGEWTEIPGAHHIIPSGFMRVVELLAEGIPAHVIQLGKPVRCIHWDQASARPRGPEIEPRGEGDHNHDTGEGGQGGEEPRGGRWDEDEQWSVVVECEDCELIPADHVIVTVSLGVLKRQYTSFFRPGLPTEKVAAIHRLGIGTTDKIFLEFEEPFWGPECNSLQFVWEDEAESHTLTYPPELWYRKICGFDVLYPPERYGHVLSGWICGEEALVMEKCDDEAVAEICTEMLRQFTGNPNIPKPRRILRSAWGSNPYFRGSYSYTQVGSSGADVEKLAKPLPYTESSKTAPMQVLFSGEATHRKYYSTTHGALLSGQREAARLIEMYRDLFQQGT

Broadly, the Ki is a dissociation constant, usually derived from enzyme kinetics or from competition with a known ligand. `[H]/N=C(\N/C(=N/[H])NCCCCCCNC(=N)NC(=N)Nc1ccc(Cl)cc1)Nc1ccc(Cl)cc1` [Chlorhexidine (1)]: the Ki turned out to be 550 nM.
